Test results published in US8759481B2, “Peptide vaccines for cancers expressing tumor-associated antigens” (Oncotherapy Science, Inc., priority 2007, dated 2014).
“Also recorded” adds a separate entry of the source.

Key:
Format in all cases: cell-based, human
[1] = test system: peptide-pulsed A24-LCL cells; experiment: IFN-gamma ELISPOT assay (positive wells); settings: HLA-A24 peptides; as compared to the control
In short: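 PBMC-derived DCs from HLA-A*2402 and/or A*0201 donors, pulsed with 20 micro g/ml peptide plus 3 micro g/ml beta 2-microglobulin, stimulated autologous CD8+ T cells three times (days 0, 7, 14). On day 21, responders were tested against peptide-pulsed A24-LCL or T2 cells by IFN-gamma ELISPOT. Values are reported as positive wells/wells tested; CTL lines confirmed by ELISA.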

[2] = test system: peptide-pulsed A24-LCL cells; experiment: CTL line establishment, IFN-gamma ELISA; settings: HLA-A24 peptides; vs target without peptide pulse
In short: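 Peptide-pulsed A24-LCL or T2 cells (1×10^4/well) served as stimulators for responder cells from 48-well cultures or limiting-dilution CTL clones. Positive wells scored by IFN-gamma ELISPOT; CTL line establishment from positive wells confirmed by IFN-gamma ELISA; lines expanded with anti-CD3 (40 ng/ml), IL-2 and MMC-inactivated B-LCL feeders.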

[3] = test system: peptide-pulsed A24-LCL cells; experiment: CTL clones by limiting dilution, specific CTL activity; settings: HLA-A24 peptides; vs target without peptide pulse
Method: (§1) The dilutions were made to have 0.3, 1, and 3 CTLs/well in 96 round-bottomed micro titer plate (Nalge Nunc International). CTLs were cultured with 7×10^4 cells/well of 2 kinds of human B-lymphoblastoid cell lines, 30 ng/ml of anti-CD3 antibody, and 125 U/ml of IL-2 in total of 150 micro 1/well of AIM-V containing 5% AS. 50 micro 1/well of IL-2 was added to the medium 10 days later so that IL-2 became 125 U/ml in the final concentration. CTL activity of CTLs was tested on the 14th day, and CTL clones were expanded using the same method above.
(§2) Briefly, peptide-pulsed A24-LCL or T2 cell (1×10^4/well) was prepared as stimulator cells. Cultured Cells in 48 wells or CTL clones after limiting dilution were used as responder cells. IFN-gamma ELISPOT assay and ELISA assay were performed under manufacture procedure.

[4] = test system: 293T transfected with full length INHBB gene and HLA-A*2402; experiment: Specific CTL activity against transfected target cells; settings: CTL line or clone raised by the peptide, vs control transfectants
Method: as §2
(§3) The cDNA encoding an open reading frame of target genes or HLA-A02 or HLA-A24 was amplified by PCR. The PCR-amplified product was cloned into pcDNA3.1 myc-His vector (Invitrogen). The plasmids were transfected into the target cells, HLA-A02 and HLA-A24-null normal human cell line COS7 or 293T using lipofectamine (Invitrogen) according to the manufacturer's recommended procedures. Alternatively, the plasmid contained the target genes were transfected into A24-LCL by electroporation using GenePulserII (Biorad). Briefly, 2.5×10^6 A24-LCL cells were pulsed with 10 mcg prasmid at 140V and 1000 micro F. After 2 days from transfection, the transfected cells were treated with Cell dissociation solution and used as the target cells for CTL activity assay.
The established CTL line raised against these peptides were examined for their ability to recognize the target cells expressing INHBB and HLA-A*2402.

[5] = test system: peptide-pulsed T2 cells; experiment: IFN-gamma ELISPOT assay (positive wells); settings: HLA-A02 peptides; as compared to the control
In short: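 CD8+ T cells from HLA-A*2402 and/or HLA-A*0201 donors were stimulated 1:20 with autologous monocyte-derived DCs pulsed with 20 µg/ml peptide plus β2-microglobulin, in IL-7, with IL-2 added, restimulated on days 7 and 14. On day 21, IFN-γ ELISPOT against peptide-pulsed T2 or A24-LCL cells (1×10^4/well) scored wells as positive, with CTL lines confirmed by ELISA.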

[6] = test system: peptide-pulsed T2 cells; experiment: CTL line establishment, IFN-gamma ELISA; settings: HLA-A02 peptides; vs target without peptide pulse
Method: CTLs were expanded in culture using the method similar to that described by Riddell S R, et al., (Walter E A et al., (1995) N Engl J Med 333:1038-44; Riddel S R, et al., (1996) Nature Med. 2:216-23.). A total 5×10^4 of CTLs were resuspended in 25 ml of AIM-V/5% AS with 2 kinds of human B-lymphoblastoid cell lines, inactivated by MMC, in the presence of 40 ng/ml of anti-CD3 monoclonal antibody (Pharmingen). One day after initiating the cultures, 120 IU/ml of IL-2 were added to the cultures. The cultures were fed with fresh AIM-V/5% AS containing 30 IU/ml of IL-2 on days 5, 8 and 11.
as §2
Positive well number indicates the number of wells where specific IFN-gamma production can be detected by IFN-gamma ELISPOT assay. 4 to 8 wells can be prepared from one donor. This is shown as (positive wells number/the number of whole wells tested by IFN-gamma ELISPOT assay). Positive CTL line indicates the number of CTL line established from positive wells. The generation of CTL line is determined by ELISA. This is shown as (established CTL line number/the number of positive wells tested by IFN-gamma ELISPOT assay). No positive donor is not defined by no detectable positive wells, but by no established CTL line. […] No data at positive donor number, positive well number and positive CTL line indicating “−” means that the peptides can't be synthesized for any reason.
CTLs were expanded in culture using the method similar to the one described by Riddell et al. (Walter E A et al., N Engl J Med 1995 Oct. 19, 333(16): 1038-44; Riddell S R et al., Nat Med 1996 Feb., 2(2): 216-23). A total of 5×10^4 CTLs were suspended in 25 ml of AIM-V/5% AS medium with 2 kinds of human B-lymphoblastoid cell lines, inactivated by MMC, in the presence of 40 ng/ml of anti-CD3 monoclonal antibody (Pharmingen). One day after initiating the cultures, 120 IU/ml of IL-2 were added to the cultures. The cultures were fed with fresh AIM-V/5% AS medium containing 30 IU/ml of IL-2 on days 5, 8 and 11 (Tanaka H et al., Br J Cancer 2001 Jan. 5, 84(1): 94-9; Umano Y et al., Br J Cancer 2001 Apr. 20, 84(8): 1052-7; Uchida N et al., Clin Cancer Res 2004 Dec. 15, 10(24): 8577-86; Suda T et al., Cancer Sci 2006 May, 97(5): 411-9; Watanabe T et al., Cancer Sci 2005 August, 96(8): 498-506).
Specifically, peptide-pulsed T2 (1×10^4/well) was prepared as stimulator cells. Cultured cells in 48 wells were used as responder cells. IFN-gamma ELISPOT assay and IFN-gamma ELISA assay were performed under manufacture procedure.

[7] = test system: peptide-pulsed T2 cells; experiment: CTL clones by limiting dilution, specific CTL activity; settings: HLA-A02 peptides; vs target without peptide pulse
Method: as §1, §2

[8] = test system: COS7 transfected with full length TTK gene and HLA-A*0201; experiment: Specific CTL activity against transfected target cells; settings: vs control transfectants
Method: as §2, §3
The established CTL clone raised against these peptides were examined for their ability to recognize the target cells endogenously expressing TTK and HLA-A*0201. […] COS7 transfected with full length TTK but HLA-A*0201, COS7 transfected HLA-A*0201 but not full length of TTK (or replaced full length HIG2 gene) and COS7 transfected with HLA-A*0201 and pulsed with different target epitope peptide, were prepared as controls.

With LYLLGVVLTL [SEQ ID NO: 112] the “IFN-gamma production by IFN-gamma ELISPOT assay” value (from here on “IFN-gamma production”) [1] was “potent IFN-gamma production”, the “Establishment of CTL line, specific CTL activity against the peptide-pulsed target determined by ELISA” value (shortened to “Establishment of CTL line”) [2] was “CTL lines were established” and the “CTL activities of CTL clones against the peptide-pulsed target” value (shortened to “CTL activities of CTL clones”) [3] was “potent and specific CTL activities”.

In the case of RVMESLEGL [SEQ ID NO: 111], the “IFN-gamma production” value [1] is reported as “potent IFN-gamma production”, the “Establishment of CTL line” value [2] is reported as “CTL lines were established” and the “CTL activities of CTL clones” value [3] is reported as “potent and specific CTL activities”.

In the case of “SEQ ID NO: 133: HLA-A*2402 binding 10-mer peptide derived from INHBB (LYLKLLPYVL)”, the “IFN-gamma production” value [1] is reported as “potent IFN-gamma production”, the “Establishment of CTL line” value [2] is reported as “CTL lines were established” and the “Specific CTL activity against 293T transfected with both INHBB and HLA-A24” value ([4]; listed as INHBB-A24-10-180) is reported as “highest specific CTL activity; also recorded: high specific CTL activity”.

With “SEQ ID NO: 135: HLA-A*2402 binding 10-mer peptide derived from INHBB (RQQFFIDFRL)” the “IFN-gamma production” value [1] was “potent IFN-gamma production”, the “Establishment of CTL line” value [2] was “CTL lines were established” and the “CTL activities of CTL clones” value [3] was “potent and specific CTL activities”. The “Specific CTL activity against 293T transfected with both INHBB and HLA-A24” value ([4]; listed as INHBB-A24-10-305) was “highest specific CTL activity; also recorded: high specific CTL activity”.

For “SEQ ID NO: 137: HLA-A*2402 binding 10-mer peptide derived from INHBB (RALGAACLLL)”, the “IFN-gamma production” value [1] was “potent IFN-gamma production”, the “Establishment of CTL line” value [2] was “CTL lines were established” and the “Specific CTL activity against 293T transfected with both INHBB and HLA-A24” value ([4]; listed as INHBB-A24-10-7) was “highest specific CTL activity”.

In the case of “SEQ ID NO: 210: HLA-A*2402 binding 9-mer peptide derived from KNTC2 (IFKDLGYPF)”, the “IFN-gamma production” value [1] is reported as “potent IFN-gamma production”, the “Establishment of CTL line” value [2] is reported as “CTL lines were established” and the “CTL activities of CTL clones” value [3] is reported as “potent and specific CTL activities”.

With “SEQ ID NO: 227: HLA-A*0201 binding 9-mer peptide derived from TTK (YMSCFRTPV)” the “IFN-gamma production” value [5] was “potent IFN-gamma production”, the “Establishment of CTL line” value [6] was “specific response” and the “CTL activities of CTL clones” value [7] was “potent and specific CTL activities”. The “Specific CTL activity against COS7 transfected with both TTK and HLA-A02” value ([8]; listed as TTK-A02-9-462) was “high specific CTL activity” and the “Specific CTL activity against COS7 transfected with both TTK and HLA-A02” value ([8]; listed as TTK-A2-9-462) was “highest specific CTL activity”.

“SEQ ID NO: 228: HLA-A*0201 binding 9-mer peptide derived from TTK (KQIYAIKYV)” was tested, and the “IFN-gamma production” value [5] was “potent IFN-gamma production”, the “Establishment of CTL line” value [6] was “CTL line and clones were established” and the “CTL activities of CTL clones” value [7] was “potent and specific CTL activities”. The “Specific CTL activity against COS7 transfected with both TTK and HLA-A02” value ([8]; listed as TTK-A02-9-547) was “highest specific CTL activity”.

“SEQ ID NO: 233: HLA-A*0201 binding 9-mer peptide derived from TTK (SLGCILYYM)” was tested, and the “IFN-gamma production” value [5] was “potent IFN-gamma production”, the “Establishment of CTL line” value [6] was “CTL line and clones were established” and the “CTL activities of CTL clones” value [7] was “potent and specific CTL activities”. The “Specific CTL activity against COS7 transfected with both TTK and HLA-A02” value ([8]; listed as TTK-A02-9-719) was “high specific CTL activity” and the “Specific CTL activity against COS7 transfected with both TTK and HLA-A02” value ([8]; listed as TTK-A2-9-719) was “highest specific CTL activity”.

In the case of “SEQ ID NO: 254: HLA-A*0201 binding 10-mer peptide derived from TTK (YMSCFRTPVV)”, the “IFN-gamma production” value [5] is reported as “potent IFN-gamma production”, the “Establishment of CTL line” value [6] is reported as “CTL line and three clones were established” and the “CTL activities of CTL clones” value [7] is reported as “potent and specific CTL activities”. For the same substance, the “Specific CTL activity against COS7 transfected with both TTK and HLA-A02” value ([8]; listed as TTK-A02-10-462) was “specific CTL activity” and the “Specific CTL activity against COS7 transfected with both TTK and HLA-A02” value ([8]; listed as TTK-A2-10-462) was “highest specific CTL activity”.

For SIFVRVMESL [SEQ ID NO: 394], the “IFN-gamma production” value [1] was “potent IFN-gamma production”, the “Establishment of CTL line” value [2] was “CTL lines were established” and the “CTL activities of CTL clones” value [3] was “potent and specific CTL activities”.

In the case of YLLGVVLTL [SEQ ID NO: 387], the “IFN-gamma production” value [1] is reported as “potent IFN-gamma production”, the “Establishment of CTL line” value [2] is reported as “CTL lines were established” and the “CTL activities of CTL clones” value [3] is reported as “potent and specific CTL activities”.
